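Results reflect a 48-hour exposure of cells in 96-well plates to compound at five concentrations. Abbreviation: GI50, concentration required for 50% inhibition of growth. TGI marks complete inhibition of growth.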
Columns and labels:
Assay in all cases: NCI tumour cell line growth inhibition, 48 h
RPMI-8226 leukemia = system: RPMI-8226 leukemia
HOP-62 NSCLC = system: HOP-62 NSCLC
KM12 colon = system: KM12 colon
EKVX NSCLC = system: EKVX NSCLC
MOLT-4 leukemia = system: MOLT-4 leukemia
HCT-116 colon = system: HCT-116 colon
ACHN renal = system: ACHN renal
SK-MEL-2 melanoma = system: SK-MEL-2 melanoma
U251 CNS = system: U251 CNS
T-47D breast = system: T-47D breast
NCI-H522 lung = system: NCI-H522 lung
A549 NSCLC = system: A549 NSCLC
SR leukemia = system: SR leukemia
COLO 205 colon = system: COLO 205 colon
CAKI-1 renal = system: CAKI-1 renal
HCC-2998 colon = system: HCC-2998 colon
HL-60(TB) leukemia = system: HL-60(TB) leukemia
IGROV1 ovarian = system: IGROV1 ovarian
M14 melanoma = system: M14 melanoma
SNB-19 CNS = system: SNB-19 CNS
SN12C renal = system: SN12C renal
786-0 renal = system: 786-0 renal
SK-MEL-28 melanoma = system: SK-MEL-28 melanoma
NCI-H226 lung = system: NCI-H226 lung
RXF 393 renal = system: RXF 393 renal
PC-3 prostate = system: PC-3 prostate
SF-295 CNS = system: SF-295 CNS

COc1cc(-c2ccc3ncnc(NCc4ccccc4)c3c2)cnc1OC
GI50 (RPMI-8226 leukemia): 4.38 µM | TGI (RPMI-8226 leukemia): > 100 µM | GI50 (HOP-62 NSCLC): 6.88 µM | TGI (HOP-62 NSCLC): > 100 µM | GI50 (KM12 colon): 50.7 µM | TGI (KM12 colon): > 100 µM | GI50 (EKVX NSCLC): 1.89 µM | TGI (EKVX NSCLC): > 100 µM | GI50 (MOLT-4 leukemia): 3.8 µM | TGI (MOLT-4 leukemia): > 100 µM | GI50 (HCT-116 colon): 13.1 µM | TGI (HCT-116 colon): > 100 µM | GI50 (ACHN renal): 2.92 µM | TGI (ACHN renal): > 100 µM | GI50 (SK-MEL-2 melanoma): 19.5 µM | TGI (SK-MEL-2 melanoma): > 100 µM | GI50 (U251 CNS): 77.3 µM | TGI (U251 CNS): > 100 µM | GI50 (T-47D breast): 0.192 µM | TGI (T-47D breast): 2.82 µM | GI50 (NCI-H522 lung): 4.65 µM | TGI (NCI-H522 lung): > 100 µM | GI50 (A549 NSCLC): 3.59 µM | TGI (A549 NSCLC): > 100 µM | GI50 (SR leukemia): 7.24 µM | TGI (SR leukemia): > 100 µM | GI50 (COLO 205 colon): 7.48 µM | TGI (COLO 205 colon): > 100 µM | GI50 (CAKI-1 renal): 2.02 µM | TGI (CAKI-1 renal): > 100 µM | GI50 (HCC-2998 colon): 14.4 µM | TGI (HCC-2998 colon): > 100 µM | GI50 (HL-60(TB) leukemia): 6.42 µM | TGI (HL-60(TB) leukemia): > 100 µM | GI50 (IGROV1 ovarian): 1.03 µM | TGI (IGROV1 ovarian): 3.52 µM | GI50 (M14 melanoma): 16.4 µM | TGI (M14 melanoma): > 100 µM | GI50 (SNB-19 CNS): 9.33 µM | TGI (SNB-19 CNS): > 100 µM | GI50 (SN12C renal): 3.74 µM | TGI (SN12C renal): > 100 µM | GI50 (786-0 renal): 2.99 µM | TGI (786-0 renal): > 100 µM | GI50 (SK-MEL-28 melanoma): 9.68 µM | TGI (SK-MEL-28 melanoma): > 100 µM | GI50 (NCI-H226 lung): 4.68 µM | TGI (NCI-H226 lung): > 100 µM | GI50 (RXF 393 renal): 1.33 µM | TGI (RXF 393 renal): 6.1 µM | GI50 (PC-3 prostate): 2.79 µM | TGI (PC-3 prostate): > 100 µM | GI50 (SF-295 CNS): 3.83 µM | TGI (SF-295 CNS): > 100 µM

From PubChem BioAssay (NCI)
